Test results from PubChem BioAssay (NCI).
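Values below derive from 48-hour exposures of cells grown in 96-well plates, with endpoints linearly interpolated between the two concentrations bracketing the appropriate inhibition level. GI50 = concentration required for 50% inhibition of growth. TGI is the concentration that stops growth completely.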

Columns and labels:
Assay in all cases: NCI-60 cell line screen, 48 h
NCI-H226 lung = test system: NCI-H226 lung
NCI-H23 lung = test system: NCI-H23 lung
NCI-H460 lung = test system: NCI-H460 lung
NCI-H522 lung = test system: NCI-H522 lung
OVCAR-3 ovarian = test system: OVCAR-3 ovarian
OVCAR-4 ovarian = test system: OVCAR-4 ovarian
OVCAR-5 ovarian = test system: OVCAR-5 ovarian
OVCAR-8 ovarian = test system: OVCAR-8 ovarian
PC-3 prostate = test system: PC-3 prostate
RPMI-8226 leukemia = test system: RPMI-8226 leukemia
RXF 393 renal = test system: RXF 393 renal
SF-268 CNS = test system: SF-268 CNS
SF-295 CNS = test system: SF-295 CNS
SF-539 CNS = test system: SF-539 CNS
SK-MEL-2 melanoma = test system: SK-MEL-2 melanoma
SK-MEL-28 melanoma = test system: SK-MEL-28 melanoma
SK-MEL-5 melanoma = test system: SK-MEL-5 melanoma
SK-OV-3 ovarian = test system: SK-OV-3 ovarian
SN12C renal = test system: SN12C renal
SNB-19 CNS = test system: SNB-19 CNS
SNB-75 CNS = test system: SNB-75 CNS
SR leukemia = test system: SR leukemia
SW-620 colon = test system: SW-620 colon
T-47D breast = test system: T-47D breast
TK-10 renal = test system: TK-10 renal
U251 CNS = test system: U251 CNS
UACC-257 melanoma = test system: UACC-257 melanoma
UACC-62 melanoma = test system: UACC-62 melanoma
UO-31 renal = test system: UO-31 renal

O=c1nc(-c2ccccc2)cc(-c2cc3ccccc3nc2Cl)[nH]1
TGI (NCI-H226 lung): 28.1 µM | GI50 (NCI-H23 lung): 10.7 µM | TGI (NCI-H23 lung): 39.6 µM | GI50 (NCI-H460 lung): 3 µM | TGI (NCI-H460 lung): 10.3 µM | GI50 (NCI-H522 lung): 8.4 µM | TGI (NCI-H522 lung): 22.3 µM | GI50 (OVCAR-3 ovarian): 3.38 µM | TGI (OVCAR-3 ovarian): 12.8 µM | GI50 (OVCAR-4 ovarian): 17.8 µM | TGI (OVCAR-4 ovarian): 61.4 µM | GI50 (OVCAR-5 ovarian): 12.2 µM | TGI (OVCAR-5 ovarian): 25.3 µM | GI50 (OVCAR-8 ovarian): 3.71 µM | TGI (OVCAR-8 ovarian): 18.6 µM | GI50 (PC-3 prostate): 6.11 µM | TGI (PC-3 prostate): 26.4 µM | GI50 (RPMI-8226 leukemia): 2.2 µM | TGI (RPMI-8226 leukemia): 7.19 µM | GI50 (RXF 393 renal): 11.1 µM | TGI (RXF 393 renal): 25.1 µM | GI50 (SF-268 CNS): 4.97 µM | TGI (SF-268 CNS): 18.6 µM | GI50 (SF-295 CNS): 10.1 µM | TGI (SF-295 CNS): 24.1 µM | GI50 (SF-539 CNS): 2.05 µM | TGI (SF-539 CNS): 5.1 µM | GI50 (SK-MEL-2 melanoma): 17.1 µM | TGI (SK-MEL-2 melanoma): 34 µM | GI50 (SK-MEL-28 melanoma): 11.1 µM | TGI (SK-MEL-28 melanoma): 23.3 µM | GI50 (SK-MEL-5 melanoma): 17.6 µM | TGI (SK-MEL-5 melanoma): 33.4 µM | GI50 (SK-OV-3 ovarian): 21.7 µM | TGI (SK-OV-3 ovarian): > 100 µM | GI50 (SN12C renal): 11.2 µM | TGI (SN12C renal): 23.9 µM | GI50 (SNB-19 CNS): 3.92 µM | TGI (SNB-19 CNS): 15.8 µM | GI50 (SNB-75 CNS): 3.82 µM | TGI (SNB-75 CNS): 20.6 µM | GI50 (SR leukemia): 0.549 µM | TGI (SR leukemia): 4.86 µM | GI50 (SW-620 colon): 1.93 µM | TGI (SW-620 colon): 3.91 µM | GI50 (T-47D breast): 21.4 µM | TGI (T-47D breast): > 100 µM | GI50 (TK-10 renal): 16.4 µM | TGI (TK-10 renal): 41.5 µM | GI50 (U251 CNS): 1.62 µM | TGI (U251 CNS): 4.25 µM | GI50 (UACC-257 melanoma): 17 µM | TGI (UACC-257 melanoma): 36.9 µM | GI50 (UACC-62 melanoma): 7.98 µM | TGI (UACC-62 melanoma): 20.9 µM | GI50 (UO-31 renal): 3.98 µM | TGI (UO-31 renal): 18 µM
